The subject of data set [1] is HEK293T cells. It is filed as cell-based. To be noted: human, 48 h. The protocol: (§1) The cyto-toxicity was determined by measuring the minimum inhibitory concentrations (MIC) for this series of dialkylated lariat ethers in the Gram-negative bacteria Escherichia coli, the Gram-positive bacteria Bacillus subtilis, and human embryonic kidney (HEK293T) cells.
On HEK293T cells. Human embryonic kidneys (HEK293T) cells (Thermofisher Scientific) were grown attached in cell culture dishes, detached by trypsin treatment and diluted in Dulbecco's Modified Eagle's Medium (DMEM) medium supplemented with phenol red indicator (Thermofisher scientific) until the density reached 100,000 viable cells/mL. An aliquot of 1 mL of this cell suspension was added to each well of a 24-wells culture plate. After 2 h, when the cells were already attached, a custom amount of 400, 100, 10 or 5 mM TFE solution of the dialkylated diaza(18-crown-6) ether compounds were added until final concentration of 400, 200, 100, 50, 20, 15, 10, 8, 6, 5, 4, 3, 2 or 1 μM were reached. The final TFE concentration never was over 0.1% v/v. Negative controls in the presence of TFE 0.1% v/v or the absence of any treatment were done for each plate. The plates were cultured at 37° C. The MIC was determined as the lowest compound concentration that killed all the cells after 48 h, as judged by trypan blue dye. […]

Data set [2] relates to Bacillus subtilis. Description: Toxicity (MIC) of dialkylated lariat ethers on B. subtilis. To be noted: B. subtilis 168 WT, 12 h, visual turbidity, read-out: minimum inhibitory concentration (MIC). The data set is classed as cell-based. The protocol:
as §1
On bacteria. XL1 blue strain Escherichia coli cells transformed with a pET28a plasmid (which contains a kanamycin resistance gene) were grown at 37° C. in 2 mL of LB medium (Miller's LB broth, Research Products International) supplemented with 50 μg/mL of kanamycin until the optical density (600 nm) reached 0.600. The starting density of bacteria in the remainder of the experiments was a 1/100 dilution of this bacterial density, which was split into 4 mL cultures. A series of 400, 100, 10 and 5 mM stock solutions of each dialkylated diaza(18-crown-6) compounds in trifluoroethanol (TFE) were diluted by adding to the 4 mL cultures until final concentrations of 400, 200, 100, 50, 20, 15, 10, 5, 4, 3, 2 and 1 μM were reached, with the final TFE concentration never >0.1% v/v. Negative controls in the presence of TFE 0.1% v/v or the absence of any treatment were done for each batch. The cultures were incubated at 37° C. with agitation for 12 h. Bacillus subtilis (168 WT) toxicity tests were carried out using an identical protocol, except for the addition of the antibiotic. […] Each compound was assayed a minimum of three times at each tested concentration.

In data set [3] the test system is B. subtilis cells. Description: Lactate dehydrogenase release (resofurin fluorescence), MAcBCE/MAkBCE and controls. To be noted: 2 μM, 37° C, potassium lactate/NAD+ solution. The data set is classed as cell-based, Bacillus subtilis. The protocol:
A 2 mL liquid culture of transformed B. subtilis cells was grown at 37° C. in LB media supplemented with […] kanamycin, until OD600=0.6. Cells were collected by centrifugation at 2000 rpm over 3 min. The bacterial pellet was washed twice in lactate/NAD^+ solution (95 mM potassium lactate, 10 mM nicotinamide adenine dinucleotide (NAD^+), 10 mM HEPES, pH adjusted to 7.4 with KOH). After the last centrifugation step, the bacteria were resuspended until OD600=1.0 in the lactate/NAD^+ solution, then diluted 100× in the same solution. The working fluorophore solution was a 1 mM of resazurin sodium salt (Alfa Cesar) in water. The experiment was started with 3 mL of lactate/NAD^+ solution in a quartz cuvette, then 3.1 μL of resazurin solution was added (timepoint t1, 50 sec) for a 1 μM final concentration, followed by the addition of 100 μL of the diluted B. subtilis suspension (timepoint t2, 100 sec). After 150 sec (timepoint t3, 250 sec), 10 μL of diaphorase (Worthinton Biochemical Corporation) 10 mg/mL solution was added. The final step involved the addition of 0.62 μL of a 10 mM stock solution of dialkylated diaza lariat ether (LEC10) in TFE (timepoint t4, 400 sec), for a final LEC10 concentration of 2 μM; or 3.1 μL of a 2 mM stock solution of valinomycin in DMSO, for a final valinomycin concentration of 2 μM; or 3.1 μL of a 20 mg/mL stock solution of lysozyme in lactate/NAD^+ solution, for a final lysozyme concentration of 20 μg/mL; or 3.1 μL of 10 mM stock solution of each MAcBCE or MAkBCE compounds in TFE, for final concentrations of 10 μM. Fluorescence intensity was recorded each second using a Horiba Fluoromax 4 spectrometer (λexcitation=550 nm; λemission=583 nm). […] To normalize, the fluorescence intensity was divided by the fluorescence level just before timepoint t4. […]
Experiments were repeated at least three times per condition. To normalize, the fluorescence intensity was divided by the fluorescence level just before timepoint t4.

In data set [4] the test system is Escherichia coli. Description: Toxicity (MIC) of dialkylated lariat ethers on E. coli. It is filed as cell-based. To be noted: E. coli XL1 blue, 12 h, visual turbidity, read-out: minimum inhibitory concentration (MIC). The protocol: as §1
On bacteria. XL1 blue strain Escherichia coli cells transformed with a pET28a plasmid (which contains a kanamycin resistance gene) were grown at 37° C. in 2 mL of LB medium (Miller's LB broth, Research Products International) supplemented with 50 μg/mL of kanamycin until the optical density (600 nm) reached 0.600. The starting density of bacteria in the remainder of the experiments was a 1/100 dilution of this bacterial density, which was split into 4 mL cultures. A series of 400, 100, 10 and 5 mM stock solutions of each dialkylated diaza(18-crown-6) compounds in trifluoroethanol (TFE) were diluted by adding to the 4 mL cultures until final concentrations of 400, 200, 100, 50, 20, 15, 10, 5, 4, 3, 2 and 1 μM were reached, with the final TFE concentration never >0.1% v/v. Negative controls in the presence of TFE 0.1% v/v or the absence of any treatment were done for each batch. The cultures were incubated at 37° C. with agitation for 12 h. Bacillus subtilis (168 WT) toxicity tests were carried out using an identical protocol, except for the addition of the antibiotic. […]

Values after ≈ are worked out from the molar mass of the structure shown.

From US20230060873A1, “COMPOUNDS AND METHODS FOR FORMING ION CHANNELS IN BIOLOGICAL MEMBRANES” (Washington University, priority 2021, published 2023) come the findings set out here.

Regarding `CCCCCCCCCCN1CCOCCOCCN(CCCCCCCCCC)CCOCCOCC1` [LEC10, Didecyl diaza(18-crown-6)], the “minimum inhibitory concentration (MIC)” value in data set [1] amounted to 6 µM (≈ 3.26 µg/mL). Further, the values for the MIC in data set [2] and in data set [4] were 2 µM (≈ 1.09 µg/mL) and 10 µM (≈ 5.43 µg/mL), respectively. In data set [3], the “resofurin fluorescence (LDH release)” value is listed as “increase in the resofurin fluorescence levels”.
